The values that follow come from PubChem BioAssay AID256 (DTP/NCI, 2004).

SMILES strings stand for the structures. Where “and” joins values, the source holds several entries; their conditions need not be identical. Identical values can stand only once. Toxic doses and inconclusive results are not listed.

The subject of this experiment is CD2F1 mice, L1210 leukemia ip, survival T/C. Description: NCI In Vivo Anticancer Drug Screen. Data for tumor model L1210 Leukemia (intraperitoneal) in CD2F1 (CDF1) mice. The conditions noted are these: higher = longer survival. Put shortly: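 Implant tumor; dose compound or vehicle; measure endpoint in both groups; report treated divided by control.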
Setting [1] is: endpoint: mean survival time, dose: 100.0 mg/kg/injection, schedule: Q04DX002 (ip), vehicle: saline with Tween-80.
Where [2] appears, read: endpoint: mean survival time, dose: 200.0 mg/kg/injection, schedule: Q04DX002 (ip), vehicle: saline with Tween-80.
[3] abbreviates: endpoint: mean survival time, dose: 400.0 mg/kg/injection, schedule: Q04DX002 (ip), vehicle: saline with Tween-80.
[4] abbreviates: endpoint: mean survival time, dose: 10.0 mg/kg/injection, schedule: Q04DX002 (ip), vehicle: saline with Tween-80.
The mark [5] stands for this setting: endpoint: mean survival time, dose: 20.0 mg/kg/injection, schedule: Q04DX002 (ip), vehicle: saline with Tween-80.
The mark [6] stands for this setting: endpoint: mean survival time, dose: 50.0 mg/kg/injection, schedule: Q01DX009 (ip), vehicle: saline.
Where [7] appears, read: endpoint: mean survival time, dose: 100.0 mg/kg/injection, schedule: Q01DX001 (ip), vehicle: saline.
Setting [8] is: endpoint: mean survival time, dose: 200.0 mg/kg/injection, schedule: Q01DX001 (ip), vehicle: saline.
The mark [9] stands for this setting: endpoint: mean survival time, dose: 100.0 mg/kg/injection, schedule: Q01DX009 (ip), vehicle: saline with Tween-80.
[10] abbreviates: endpoint: mean survival time, dose: 200.0 mg/kg/injection, schedule: Q01DX009 (ip), vehicle: saline with Tween-80.
The mark [11] stands for this setting: endpoint: mean survival time, dose: 400.0 mg/kg/injection, schedule: Q01DX001 (ip), vehicle: saline.
The mark [12] stands for this setting: endpoint: mean survival time, dose: 400.0 mg/kg/injection, schedule: Q01DX009 (ip), vehicle: saline with Tween-80.
Where [13] appears, read: endpoint: mean survival time, dose: 100.0 mg/kg/injection, schedule: Q04DX003 (ip), vehicle: saline with Tween-80.

In the case of `O=C1CC2/C(=[N+](/[O-])O)C=C([N+](=O)[O-])C(C1C(=O)Nc1ccccc1)C2[N+](=O)[O-]` (stereo not given), the T/C reads like this: under setting [1], 110 % of control; under setting [2], 98 % of control; under setting [3], 110 % of control.
With `O=C(Nc1ccccc1Cl)Nc1ccccc1Cl`, the T/C is, setting by setting: under setting [1], 90 % of control; under setting [2], 94 % of control; under setting [3], 94 % of control.
As to `CSc1ccc2c(c1)C(N1CCN(C)CC1)Cc1ccccc1S2` (stereo not given), the T/C is 112 % of control (endpoint: mean survival time, dose: 1.56 mg/kg/injection, schedule: Q01DX009 (ip), vehicle: saline with Tween-80); 118 % of control and 121 % of control (endpoint: mean survival time, dose: 3.12 mg/kg/injection, schedule: Q01DX009 (ip), vehicle: saline with Tween-80); 116 % of control and 122 % of control (endpoint: mean survival time, dose: 6.25 mg/kg/injection, schedule: Q01DX009 (ip), vehicle: saline with Tween-80); 115 % of control and 120 % of control (endpoint: mean survival time, dose: 12.5 mg/kg/injection, schedule: Q01DX009 (ip), vehicle: saline with Tween-80); 122 % of control and 108 % of control (endpoint: mean survival time, dose: 25.0 mg/kg/injection, schedule: Q01DX009 (ip), vehicle: saline with Tween-80); 114 % of control (endpoint: mean survival time, dose: 50.0 mg/kg/injection, schedule: Q01DX009 (ip), vehicle: saline with Tween-80).
In the case of `CCCCC(=O)O.[Pb]`, the T/C reads like this: (endpoint: mean survival time, dose: 75.0 mg/kg/injection, schedule: Q01DX001 (ip), vehicle: steriod suspending solution) 100 % of control; (endpoint: mean survival time, dose: 150.0 mg/kg/injection, schedule: Q01DX001 (ip), vehicle: steriod suspending solution) 104 % of control; (endpoint: mean survival time, dose: 300.0 mg/kg/injection, schedule: Q01DX001 (ip), vehicle: steriod suspending solution) 97 % of control.
`O=c1[nH]c(/C=C/C=C/c2ccccc2)c([N+](=O)[O-])c(=O)[nH]1`: the T/C was 98 % of control (endpoint: mean survival time, dose: 50.0 mg/kg/injection, schedule: Q04DX002 (ip), vehicle: Klucel (hydroxypropylcellulose) (HPC)); 91 % of control and 94 % of control (endpoint: mean survival time, dose: 100.0 mg/kg/injection, schedule: Q04DX002 (ip), vehicle: Klucel (hydroxypropylcellulose) (HPC)); 88 % of control and 94 % of control (endpoint: mean survival time, dose: 200.0 mg/kg/injection, schedule: Q04DX002 (ip), vehicle: Klucel (hydroxypropylcellulose) (HPC)); 98 % of control (endpoint: mean survival time, dose: 400.0 mg/kg/injection, schedule: Q04DX002 (ip), vehicle: Klucel (hydroxypropylcellulose) (HPC)).
Take `CN(C)c1nc2c(N)ncnc2n1C1OC(CO)C(O)C1O` (stereo not given): the T/C is, setting by setting: under setting [4], 103 % of control; under setting [5], 98 % of control; (endpoint: mean survival time, dose: 40.0 mg/kg/injection, schedule: Q04DX002 (ip), vehicle: saline with Tween-80) 98 % of control; (endpoint: mean survival time, dose: 50.0 mg/kg/injection, schedule: Q01DX001 (ip), vehicle: saline) 100 % of control; under setting [6], 123 % of control; under setting [7], 106 % of control. For the same compound, the T/C runs as follows: (endpoint: mean survival time, dose: 100.0 mg/kg/injection, schedule: Q01DX009 (ip), vehicle: saline) 100 % of control; under setting [8], 102 % of control.
Turning to `CC(=O)Nc1ccc(S(=O)(=O)OCCC#N)cc1`, the T/C reads like this: under setting [9], 98 % of control; under setting [10], 91 % of control.
Consider `ClCC(Cl)CN1CCCCC1` (stereo not given), for which the T/C was 100 % of control (endpoint: mean survival time, dose: 25.0 mg/kg/injection, schedule: Q01DX009 (ip), vehicle: saline) and 103 % of control under setting [6].
Consider `Nc1nc(/C=C(/O)c2ccccc2)c2ncn(C3OC(CO)C(O)C3O)c2n1` (stereo not given), for which the T/C by setting is: (endpoint: mean survival time, dose: 12.5 mg/kg/injection, schedule: Q01DX005 (ip), vehicle: distilled water + Tween-80) 103 % of control; (endpoint: mean survival time, dose: 12.5 mg/kg/injection, schedule: Q01DX009 (ip), vehicle: distilled water + Tween-80) 89 % of control; (endpoint: mean survival time, dose: 25.0 mg/kg/injection, schedule: Q01DX005 (ip), vehicle: distilled water + Tween-80) 114 % of control and 115 % of control; (endpoint: mean survival time, dose: 25.0 mg/kg/injection, schedule: Q01DX009 (ip), vehicle: distilled water + Tween-80) 89 % of control; (endpoint: mean survival time, dose: 50.0 mg/kg/injection, schedule: Q01DX005 (ip), vehicle: distilled water + Tween-80) 120 % of control; (endpoint: mean survival time, dose: 50.0 mg/kg/injection, schedule: Q01DX009 (ip), vehicle: distilled water + Tween-80) 92 % of control. Also, the T/C (endpoint: mean survival time, dose: 100.0 mg/kg/injection, schedule: Q01DX005 (ip), vehicle: distilled water + Tween-80) is 160 % of control; the T/C (endpoint: mean survival time, dose: 100.0 mg/kg/injection, schedule: Q01DX009 (ip), vehicle: distilled water + Tween-80) is 102 % of control; the T/C (endpoint: mean survival time, dose: 200.0 mg/kg/injection, schedule: Q01DX009 (ip), vehicle: distilled water + Tween-80) was 103 % of control; the T/C (endpoint: median survival time, dose: 12.5 mg/kg/injection, schedule: Q01DX009 (ip), vehicle: distilled water + Tween-80) was 103 % of control; the T/C (endpoint: median survival time, dose: 25.0 mg/kg/injection, schedule: Q01DX009 (ip), vehicle: distilled water + Tween-80) is 107 % of control; the T/C (endpoint: median survival time, dose: 50.0 mg/kg/injection, schedule: Q01DX009 (ip), vehicle: distilled water + Tween-80) is 111 % of control. For the setting “endpoint: median survival time, dose: 100.0 mg/kg/injection, schedule: Q01DX009 (ip), vehicle: distilled water + Tween-80”, the T/C was 113 % of control.
Regarding `C=C1C(=O)OC(CCCCCCCCCCCCC)C1C(=O)O` (stereo not given), the T/C is, setting by setting: under setting [4], 108 % of control; under setting [5], 87 % of control.
In the case of `CCOC(=O)C(C(=O)OCC)C(C)C`, the T/C is, setting by setting: under setting [7], 97 % of control; under setting [8], 97 % of control; under setting [11], 110 % of control.
For `O=C1CSC(=S)N1c1cccc(C(F)(F)F)c1`, the T/C reads like this: under setting [9], 97 % of control; under setting [10], 112 % of control; under setting [12], 101 % of control.
Turning to `Cc1c(Cl)c(C)c(Cl)c(O)c1Cl` (tested in a mixture with another compound), the T/C is 97 % of control (endpoint: mean survival time, dose: 50.0 mg/kg/injection, schedule: Q01DX005 (ip), vehicle: saline with Tween-80) and 91 % of control (endpoint: mean survival time, dose: 100.0 mg/kg/injection, schedule: Q01DX005 (ip), vehicle: saline with Tween-80).
Take `CCCCNC(=O)c1ccc2c(c1)C(=O)N(CCCC)C2=O`: the T/C by setting is: under setting [1], 101 % of control; under setting [2], 104 % of control; under setting [3], 93 % of control.
As to `C=NCC#N`, the T/C was 106 % of control under setting [13] and 101 % of control (endpoint: mean survival time, dose: 200.0 mg/kg/injection, schedule: Q04DX003 (ip), vehicle: saline with Tween-80).
As to `CC(N)CC(=O)NO` (stereo not given), the T/C under setting [7] was 104 % of control, the T/C under setting [8] was 104 % of control and the T/C under setting [11] was 108 % of control.
Consider `CC[n+]1cccc2ccccc21`, for which the T/C is 95 % of control (endpoint: mean survival time, dose: 18.8 mg/kg/injection, schedule: Q01DX009 (ip), vehicle: saline); 96 % of control (endpoint: mean survival time, dose: 25.0 mg/kg/injection, schedule: Q04DX003 (ip), vehicle: saline); 96 % of control (endpoint: mean survival time, dose: 37.5 mg/kg/injection, schedule: Q01DX009 (ip), vehicle: saline).
As to `[O-][n+]1ccc(-c2ccccc2)nc1`, the T/C is 106 % of control (endpoint: mean survival time, dose: 50.0 mg/kg/injection, schedule: Q04DX002 (ip), vehicle: saline with Tween-80); 103 % of control under setting [1]; 117 % of control under setting [2].
Regarding `Cn1cc(C(O)CN2CCCCC2)c2ccccc21` (stereo not given), under setting [13], the T/C was 93 % of control.
For `Nc1ccc(NC(=O)COc2cccc(Cl)c2)cc1`, the T/C reads like this: (endpoint: mean survival time, dose: 100.0 mg/kg/injection, schedule: Q01DX001 (ip), vehicle: saline with Tween-80) 90 % of control; (endpoint: mean survival time, dose: 200.0 mg/kg/injection, schedule: Q01DX001 (ip), vehicle: saline with Tween-80) 90 % of control; (endpoint: mean survival time, dose: 400.0 mg/kg/injection, schedule: Q01DX001 (ip), vehicle: saline with Tween-80) 95 % of control.
Regarding `COc1ccc(NC2=C(C)C(=O)C3=C(C2=O)[C@H](COC(N)=O)[C@]2(OC)[C@@H]4N[C@@H]4CN32)cc1OC`, the T/C was 124 % of control and 111 % of control (endpoint: median survival time, dose: 3.0 mg/kg/injection, schedule: Q01DX001 (ip), vehicle: water); 124 % of control (endpoint: median survival time, dose: 6.0 mg/kg/injection, schedule: Q01DX001 (ip), vehicle: water); 110 % of control (endpoint: median survival time, dose: 24.0 mg/kg/injection, schedule: Q01DX001 (ip), vehicle: water).
As to `Cc1cccc(N=Cc2ccc3c(c2)OCO3)c1`, the T/C reads like this: (endpoint: mean survival time, dose: 100.0 mg/kg/injection, schedule: Q04DX003 (ip), vehicle: Klucel (hydroxypropylcellulose) (HPC)) 100 % of control; (endpoint: mean survival time, dose: 200.0 mg/kg/injection, schedule: Q04DX003 (ip), vehicle: Klucel (hydroxypropylcellulose) (HPC)) 111 % of control.
Turning to `O=CNc1ccc([N+](=O)[O-])cc1`, the T/C reads like this: under setting [9], 101 % of control; under setting [10], 94 % of control; under setting [12], 91 % of control.
